Test system: primary cultures of adult porcine RPE cells
Test: RPE cellular model of phototoxicity induced by A2E treatment followed by blue radiation illumination; cell survival
Assay type: cell-based
Details: for protective effect (cell survival vs control without A2E): concentrations of 0.1 and 1 μM, 48 h treatment, last 24 h with A2E, then blue light; for protection, percentage of survival compared to the control without A2E: 10 μM
Procedure: Given the very probable role of this mechanism in the development of AMD, the inventors used an in vitro cellular model of induced phototoxicity by the association of a treatment with A2E and illumination by blue light on RPE primary cell cultures wherein cell survival was measured. This model was developed by the Institute of Vision and allows for screening molecules aimed to discover new candidates for the treatment of dry AMD.
To test the photoprotective effect of the test substances, the inventors used a cellular model of induced phototoxicity by treatment with A2E followed by illumination with blue radiation. This model was produced from primary cultures of adult porcine RPE cells. Cell survival was determined by the ratio between the number of living cells and the total number of cells (alive+dead, respectively quantified using specific staining). Image acquisition was performed using a fluorescence microscope controlled by Metamorph software and quantifications were made by processing images acquired by a program dedicated quantification. The experiments were performed in 96-well microplates in quadruplicate and the experiment was repeated at least four times. Cells were treated for 48 hours with these compounds, the last 24 hours in the presence of A2E before induction of phototoxicity. Three concentrations (0.1, 1 and 10 μM) were tested for each compound. Some compounds were further tested at 20 μM to achieve a range of concentrations.

SMILES | protective effect (cell survival vs control without A2E) | protection, percentage of survival compared to the control without A2E [%] | protection against phototoxicity (in words) (20 μM)
CC(/C=C/C=C(\C)C(=O)O)=C\C=C\C=C(C)\C=C\C=C(/C)C(=O)O [Crocetin] | did not show a protective effect | – | –
CC1=C[C@H](O)CC(C)(C)[C@H]1/C=C/C(C)=C/C=C/C(C)=C/C=C/C=C(C)/C=C/C=C(C)/C=C/C1=C(C)C[C@@H](O)CC1(C)C [Lutein, reference compound] | did not show a protective effect | – | –
O=c1cc(-c2ccc(O)c(O)c2)oc2c([C@@H]3O[C@H](CO)[C@@H](O)[C@H](O)[C@H]3O)c(O)cc(O)c12 [Orientin] | did not show a protective effect | – | –
CC1=C(/C=C/C(C)=C/C=C/C(C)=C/C=C/C=C(C)/C=C/C=C(C)/C=C/C2=C(C)C[C@@H](O)CC2(C)C)C(C)(C)C[C@H](O)C1 [Zeaxanthin, reference compound] | did not show a protective effect | – | –
O=C1C[C@@H](c2ccc(O)cc2)Oc2cc(O)cc(O)c21 [Naringenin] | did not show a protective effect | – | –
Oc1cc(O)c2cc(O)c(-c3ccc(O)c(O)c3)[o+]c2c1 [Cyanidin] | – | ~87 | –
O=c1oc2c(O)c(O)cc3c(=O)oc4c(O)c(O)cc1c4c23 [Ellagic acid] | did not show a protective effect | ~68 | protection similar to that measured at 10 μM
Oc1ccc(C=Cc2cc(O)cc(O)c2)cc1 [Resveratrol, reference compound] | did not show a protective effect | – | –
